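Compound exposure: 48 hours, 5 concentrations, 96-well plates. GI50 marks 50% less growth. TGI is the concentration that stops growth completely.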
How the values were obtained:
Assay in all cases: NCI anticancer screen, dose series, 48 h
[1] = test system: T-47D breast
[2] = test system: DU-145 prostate
[3] = test system: MCF7 breast
[4] = test system: ACHN renal
[5] = test system: BT-549 breast
[6] = test system: HT29 colon
[7] = test system: M14 melanoma
[8] = test system: OVCAR-4 ovarian
[9] = test system: MDA-MB-231 breast
[10] = test system: UO-31 renal
[11] = test system: SK-MEL-28 melanoma
[12] = test system: HOP-62 NSCLC
[13] = test system: UACC-62 melanoma
[14] = test system: MDA-MB-435
[15] = test system: OVCAR-8 ovarian
[16] = test system: HS 578T breast
[17] = test system: SF-539 CNS
[18] = test system: SNB-75 CNS
[19] = test system: CCRF-CEM leukemia
[20] = test system: LOX IMVI melanoma
[21] = test system: OVCAR-5 ovarian
[22] = test system: KM12 colon
[23] = test system: PC-3 prostate
[24] = test system: NCI-H23 lung
[25] = test system: CAKI-1 renal
[26] = test system: SNB-19 CNS
[27] = test system: HL-60(TB) leukemia
[28] = test system: A549 NSCLC
[29] = test system: HOP-92 NSCLC
[30] = test system: SR leukemia
[31] = test system: SK-OV-3 ovarian
[32] = test system: SW-620 colon
[33] = test system: NCI-H226 lung
[34] = test system: UACC-257 melanoma
[35] = test system: MALME-3M melanoma
[36] = test system: HCT-116 colon
[37] = test system: SK-MEL-5 melanoma
[38] = test system: TK-10 renal
[39] = test system: RPMI-8226 leukemia
[40] = test system: HCC-2998 colon
[41] = test system: SN12C renal
[42] = test system: MOLT-4 leukemia
[43] = test system: EKVX NSCLC
[44] = test system: U251 CNS
[45] = test system: 786-0 renal
[46] = test system: COLO 205 colon
[47] = test system: NCI-H522 lung
[48] = test system: RXF 393 renal
[49] = test system: A498 renal
[50] = test system: SF-295 CNS
[51] = test system: IGROV1 ovarian
[52] = test system: SF-268 CNS
[53] = test system: SK-MEL-2 melanoma
[54] = test system: OVCAR-3 ovarian
[55] = test system: NCI/ADR-RES ovarian
[56] = test system: HCT-15 colon
[57] = test system: NCI-H460 lung
[58] = test system: K-562 leukemia

With `COC(=O)/C=C1/SC(N2N=C(c3cccs3)CC2c2ccc(F)cc2)=NC1=O` (stereo not drawn) the GI50 [1] was 3.27 µM, the TGI [1] was 8.31 µM and the GI50 [2] was 2.12 µM. It also gave a TGI [2] of 4.75 µM, a GI50 [3] of 2.34 µM and a TGI [3] of 8.06 µM. The GI50 [4] was 1.89 µM, the TGI [4] was 3.47 µM and the GI50 [5] was 3.21 µM. It also gave a TGI [5] of 8.09 µM, a GI50 [6] of 2.28 µM and a TGI [6] of 4.54 µM. For the same compound, the GI50 [7] was 2.25 µM, the TGI [7] was 5.17 µM and the GI50 [8] was 2.64 µM. For the same compound, the TGI [8] was 7.49 µM, the GI50 [9] was 2.96 µM and the TGI [9] was 8.16 µM. The GI50 [10] was 1.49 µM, the TGI [10] was 2.9 µM and the GI50 [11] was 2.61 µM. For the same compound, the TGI [11] was 6 µM, the GI50 [12] was 1.87 µM and the TGI [12] was 4.29 µM. It also gave a GI50 [13] of 1.58 µM, a TGI [13] of 3.74 µM and a GI50 [14] of 2.13 µM. It also gave a TGI [14] of 4.8 µM, a GI50 [15] of 2.59 µM and a TGI [15] of 7.66 µM. The GI50 [16] was 4.46 µM, the TGI [16] was over 100 µM and the GI50 [17] was 1.86 µM. The TGI [17] was 3.39 µM, the GI50 [18] was 1.64 µM and the TGI [18] was 7.28 µM. It also gave a GI50 [19] of 3 µM, a TGI [19] of 8.73 µM and a GI50 [20] of 1.61 µM. For the same compound, the TGI [20] was 3.06 µM, the GI50 [21] was 2.46 µM and the TGI [21] was 5.21 µM. For the same compound, the GI50 [22] was 1.92 µM, the TGI [22] was 3.78 µM and the GI50 [23] was 1.92 µM. For the same compound, the TGI [23] was 4.3 µM, the GI50 [24] was 2.33 µM and the TGI [24] was 5.82 µM. The GI50 [25] was 2.82 µM, the TGI [25] was 10.2 µM and the GI50 [26] was 2.51 µM. The TGI [26] was 6.32 µM, the GI50 [27] was 2.88 µM and the TGI [27] was 6.35 µM. For the same compound, the GI50 [28] was 4.1 µM, the TGI [28] was 20.6 µM and the GI50 [29] was 2.4 µM. For the same compound, the TGI [29] was 5.67 µM, the GI50 [30] was 2.23 µM and the TGI [30] was 11.8 µM. The GI50 [31] was 9.78 µM, the TGI [31] was 53.9 µM and the GI50 [32] was 2.16 µM. For the same compound, the TGI [32] was 5 µM, the GI50 [33] was 2.24 µM and the TGI [33] was 6.32 µM. It also gave a GI50 [34] of 2.39 µM, a TGI [34] of 6.83 µM and a GI50 [35] of 2.44 µM. For the same compound, the TGI [35] was 8.51 µM, the GI50 [36] was 2.05 µM and the TGI [36] was 3.82 µM. For the same compound, the GI50 [37] was 1.78 µM, the TGI [37] was 3.36 µM and the GI50 [38] was 2.6 µM. It also gave a TGI [38] of 8.16 µM, a GI50 [39] of 2.08 µM and a TGI [39] of 5.36 µM. It also gave a GI50 [40] of 1.97 µM, a TGI [40] of 3.52 µM and a GI50 [41] of 3.29 µM. The TGI [41] was 11 µM, the GI50 [42] was 2.65 µM and the TGI [42] was 7.25 µM. For the same compound, the GI50 [43] was 3.49 µM, the TGI [43] was 23.6 µM and the GI50 [44] was 1.89 µM. For the same compound, the TGI [44] was 3.69 µM, the GI50 [45] was 3.12 µM and the TGI [45] was 8.61 µM. It also gave a GI50 [46] of 2.15 µM, a TGI [46] of 4.27 µM and a GI50 [47] of 2.15 µM. It also gave a TGI [47] of 4.79 µM, a GI50 [48] of 1.73 µM and a TGI [48] of 3.26 µM. It also gave a GI50 [49] of 1.81 µM, a TGI [49] of 6.26 µM and a GI50 [50] of 3.24 µM. It also gave a TGI [50] of 13.5 µM, a GI50 [51] of 2.4 µM and a TGI [51] of 7.06 µM. For the same compound, the GI50 [52] was 2.95 µM, the TGI [52] was 12.6 µM and the GI50 [53] was 4.04 µM. It also gave a TGI [53] of 15.6 µM, a GI50 [54] of 2.19 µM and a TGI [54] of 5.27 µM. It also gave a GI50 [55] of 2.84 µM, a TGI [55] of 8.61 µM and a GI50 [56] of 1.95 µM. The TGI [56] was 4.44 µM, the GI50 [57] was 2.19 µM and the TGI [57] was 4.93 µM.
`N=C(N)c1ccc(NCCOCCNc2ccc(C(=N)N)cc2)cc1` showed a GI50 [1] of 7.17 µM, a TGI [1] of 75.6 µM and a GI50 [2] of 27.4 µM. The TGI [2] was over 100 µM, the GI50 [3] was 16 µM and the TGI [3] was over 100 µM. It also gave a GI50 [4] of 36.1 µM, a TGI [4] of over 100 µM and a GI50 [5] of 34.9 µM. It also gave a TGI [5] of over 100 µM, a GI50 [6] of 29.5 µM and a TGI [6] of over 100 µM. For the same compound, the GI50 [58] was 21.3 µM, the TGI [58] was over 100 µM and the GI50 [7] was 55.4 µM. The TGI [7] was over 100 µM, the GI50 [8] was 34.1 µM and the TGI [8] was over 100 µM. For the same compound, the GI50 [9] was over 100 µM, the TGI [9] was over 100 µM and the GI50 [10] was 47.2 µM. The TGI [10] was over 100 µM, the GI50 [11] was 73.3 µM and the TGI [11] was over 100 µM. It also gave a GI50 [12] of 33.2 µM, a TGI [12] of over 100 µM and a GI50 [13] of 29.2 µM. The TGI [13] was over 100 µM, the GI50 [14] was 81.3 µM and the TGI [14] was over 100 µM. The GI50 [15] was 34.4 µM, the TGI [15] was over 100 µM and the GI50 [16] was 52.8 µM. The TGI [16] was over 100 µM, the GI50 [17] was 36.8 µM and the TGI [17] was over 100 µM. The GI50 [18] was 19.2 µM, the TGI [18] was 81.3 µM and the GI50 [19] was over 100 µM. It also gave a TGI [19] of over 100 µM, a GI50 [20] of over 100 µM and a TGI [20] of over 100 µM. For the same compound, the GI50 [21] was over 100 µM, the TGI [21] was over 100 µM and the GI50 [22] was 43.8 µM. For the same compound, the TGI [22] was over 100 µM, the GI50 [23] was 50.7 µM and the TGI [23] was over 100 µM. The GI50 [24] was 6.91 µM, the TGI [24] was over 100 µM and the GI50 [25] was over 100 µM. For the same compound, the TGI [25] was over 100 µM, the GI50 [26] was 27.3 µM and the TGI [26] was over 100 µM. The GI50 [27] was 60.9 µM, the TGI [27] was over 100 µM and the GI50 [28] was 14.4 µM. For the same compound, the TGI [28] was over 100 µM, the GI50 [29] was 15.4 µM and the TGI [29] was 59.8 µM. The GI50 [30] was 49 µM, the TGI [30] was over 100 µM and the GI50 [31] was 7.86 µM. The TGI [31] was 51.7 µM, the GI50 [32] was 63.6 µM and the TGI [32] was over 100 µM. It also gave a GI50 [33] of 13.3 µM, a TGI [33] of over 100 µM and a GI50 [34] of over 100 µM. It also gave a TGI [34] of over 100 µM, a GI50 [35] of 29.7 µM and a TGI [35] of 87 µM. For the same compound, the GI50 [36] was 49.4 µM, the TGI [36] was over 100 µM and the GI50 [37] was 25.5 µM. For the same compound, the TGI [37] was 89.4 µM, the GI50 [38] was over 100 µM and the TGI [38] was over 100 µM. For the same compound, the GI50 [39] was 22 µM, the TGI [39] was over 100 µM and the GI50 [40] was 41.9 µM. For the same compound, the TGI [40] was over 100 µM, the GI50 [41] was 4.28 µM and the TGI [41] was over 100 µM. It also gave a GI50 [42] of over 100 µM, a TGI [42] of over 100 µM and a GI50 [43] of 21.7 µM. For the same compound, the TGI [43] was over 100 µM, the GI50 [44] was 35.9 µM and the TGI [44] was over 100 µM. It also gave a GI50 [45] of over 100 µM, a TGI [45] of over 100 µM and a GI50 [46] of 14.9 µM. For the same compound, the TGI [46] was 39.5 µM, the GI50 [47] was 29.8 µM and the TGI [47] was over 100 µM. For the same compound, the GI50 [49] was 17 µM, the TGI [49] was 94.6 µM and the GI50 [50] was 43.3 µM. For the same compound, the TGI [50] was over 100 µM, the GI50 [51] was 60.5 µM and the TGI [51] was over 100 µM. The GI50 [52] was 45.3 µM, the TGI [52] was over 100 µM and the GI50 [53] was 51.6 µM. The TGI [53] was over 100 µM, the GI50 [54] was 69.1 µM and the TGI [54] was over 100 µM. For the same compound, the GI50 [55] was 78.5 µM, the TGI [55] was over 100 µM and the GI50 [56] was 30.2 µM. The TGI [56] was over 100 µM, the GI50 [57] was 2.94 µM and the TGI [57] was over 100 µM.

— PubChem BioAssay (NCI)
